We go through 17 molecules from patent US8426408B2, “Pyrimidine inhibitors of kinases” (AbbVie Inc., priority 2009, dated 2013).

SMILES strings stand for the structures. pIC50, pKi: −log10 of the molar value.

One test addresses KDR (Homo sapiens, UniProt P35968). Kind of test: KDR cellular assay (KDR receptor phosphorylation ELISA). Format: cell-based. Set-up: expressed in transfected cells; host or cells: 3T3 (embryonic mouse) cells. The settings on record: KDR transfected 3T3 (embryonic mouse) cells, VEGF stimulated; read-out: IC50 inhibition of KDR phosphorylation. An outline of the steps:
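Phospho-KDR measured by capture ELISA (anti-KDR coat, biotinylated detection, streptavidin-HRP, 450 nm) in lysates of KDR-expressing 3T3 mouse fibroblasts. Cells saw compound 20 min at 37° C before 10 min VEGF challenge (100 ng/ml solution); IC50 from non-linear regression of half-log dose series.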

Another test has as its target T1, Aurora B (Homo sapiens, UniProt Q96GD4).
T1 construct: Active Aurora B enzyme (recombinant residues 1-344)
Kind of test: Aurora B enzyme inhibition (time-resolved fluorescence, histone H3 peptide). The class given is biochemical. The settings on record: 1 mM ATP. An outline of the steps:
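IC50s came from an exponential fit of inhibition against inhibitor concentration, with phosphorylation read as the 665/615 nm time-resolved fluorescence ratio after EDTA stop using Eu-anti-phospho-H3 and SA-APC. The 1 h reaction used Aurora B 1-344 plus GST-INCENP, biotin-histone H3 1-21 peptide and 1 mM ATP in pH 7.4 HEPES buffer.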

The subject of the next test is NCI-H1299 cells. Kind of test: Induction of polyploidy in H1299. The class given is cell-based, Human. The settings on record: Homo sapiens; NCI-H1299, 48 hours; read-out: EC15 (concentration of inhibitor necessary to induce polyploidy in 15% of cells). An outline of the steps: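 Potency is given as EC15, the inhibitor concentration giving 15% polyploid cells, from log dose-response least-squares analysis. Polyploid cells (nuclear area >750 μ^2, ≥4N) were counted by Hoechst high-content microscopy. H1299 cells had been exposed for 48 h at 37 C in duplicate, then fixed in 3% formalin.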

KDR, sequence (P35968 20-1356): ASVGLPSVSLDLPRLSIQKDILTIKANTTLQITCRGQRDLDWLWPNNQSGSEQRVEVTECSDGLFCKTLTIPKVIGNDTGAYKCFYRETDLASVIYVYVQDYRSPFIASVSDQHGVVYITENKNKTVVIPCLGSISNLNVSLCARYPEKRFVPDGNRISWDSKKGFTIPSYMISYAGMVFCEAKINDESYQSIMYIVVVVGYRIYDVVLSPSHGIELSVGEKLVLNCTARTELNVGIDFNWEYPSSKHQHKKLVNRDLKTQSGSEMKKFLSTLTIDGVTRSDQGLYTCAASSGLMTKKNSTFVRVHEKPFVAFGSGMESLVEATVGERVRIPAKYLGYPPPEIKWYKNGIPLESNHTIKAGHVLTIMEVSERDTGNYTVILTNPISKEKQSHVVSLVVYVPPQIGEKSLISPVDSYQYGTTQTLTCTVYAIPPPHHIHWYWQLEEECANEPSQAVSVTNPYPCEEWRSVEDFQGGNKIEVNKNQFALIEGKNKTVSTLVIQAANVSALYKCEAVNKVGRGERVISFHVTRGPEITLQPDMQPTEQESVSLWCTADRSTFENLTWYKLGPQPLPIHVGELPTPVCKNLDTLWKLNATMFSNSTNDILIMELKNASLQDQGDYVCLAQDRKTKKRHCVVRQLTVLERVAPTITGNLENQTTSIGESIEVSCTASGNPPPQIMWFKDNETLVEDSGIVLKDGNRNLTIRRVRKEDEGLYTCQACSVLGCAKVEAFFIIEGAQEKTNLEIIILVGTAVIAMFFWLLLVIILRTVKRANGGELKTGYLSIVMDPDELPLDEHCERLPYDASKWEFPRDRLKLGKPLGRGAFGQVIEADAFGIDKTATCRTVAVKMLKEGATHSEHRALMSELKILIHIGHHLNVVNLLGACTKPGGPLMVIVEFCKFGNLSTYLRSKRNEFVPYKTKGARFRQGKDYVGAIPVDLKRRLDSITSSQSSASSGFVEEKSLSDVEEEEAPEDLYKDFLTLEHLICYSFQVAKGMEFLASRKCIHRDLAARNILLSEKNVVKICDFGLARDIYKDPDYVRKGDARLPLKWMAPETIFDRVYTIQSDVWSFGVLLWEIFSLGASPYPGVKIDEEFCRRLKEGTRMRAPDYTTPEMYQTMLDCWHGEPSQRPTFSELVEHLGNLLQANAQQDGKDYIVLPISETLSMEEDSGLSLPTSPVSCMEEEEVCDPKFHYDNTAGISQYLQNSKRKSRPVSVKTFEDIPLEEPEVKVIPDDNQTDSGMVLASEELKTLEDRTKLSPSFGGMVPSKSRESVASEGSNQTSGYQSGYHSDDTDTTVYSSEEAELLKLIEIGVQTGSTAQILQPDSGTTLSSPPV
T1 sequence (Q96GD4 whole entry, the tested form may be a part): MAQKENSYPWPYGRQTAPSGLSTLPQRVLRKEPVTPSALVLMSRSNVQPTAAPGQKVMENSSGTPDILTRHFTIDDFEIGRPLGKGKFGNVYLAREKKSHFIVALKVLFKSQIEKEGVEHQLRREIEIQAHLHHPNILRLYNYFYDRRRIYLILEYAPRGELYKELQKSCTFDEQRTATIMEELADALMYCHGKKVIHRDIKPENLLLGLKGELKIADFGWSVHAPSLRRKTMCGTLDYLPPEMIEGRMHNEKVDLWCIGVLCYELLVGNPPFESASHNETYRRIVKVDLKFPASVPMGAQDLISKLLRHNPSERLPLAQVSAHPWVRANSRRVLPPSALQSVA
T1 sequence (Q9NQS7 826-918 partner limits assumed): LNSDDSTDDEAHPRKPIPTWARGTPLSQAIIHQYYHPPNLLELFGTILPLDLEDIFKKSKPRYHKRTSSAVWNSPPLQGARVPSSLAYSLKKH

Consider `NC(=O)[C@@H]1[C@H](Nc2nc(Nc3cnn(CC(=O)O)c3)ncc2Cl)[C@H]2C=C[C@@H]1C2` [Example 103, {4-[(4-{[(1R,2R,3S,4S)-3-carbamoylbicyclo[2.2.1]hept-5-ene-2-yl]amino}-5-chloropyrimidin-2-yl)amino]-1H-pyrazol-1-yl}acetic acid], for which, at KDR, the pIC50 was 6.00 to 7.00. For the same molecule, on Aurora B, the negative-log Ki (pKi) was over 7.00. For the same molecule, the EC15 with NCI-H1299 cells is under 100 nM.
The like results for `C[C@@H](O)Cn1cc(Nc2ncc(Cl)c(N[C@@H]3[C@H]4CC[C@H](C4)[C@@H]3C(N)=O)n2)cn1` [Example 104, (1R,2S,3R,4S)-3-{[5-chloro-2-({1-[(2R)-2-hydroxypropyl]-1H-pyrazol-4-yl}amino)pyrimidin-4-yl]amino}bicyclo[2.2.1]heptane-2-carboxamide] were, in that order, 6.00 to 7.00, over 7.00 and under 100 nM.
On to `C[C@@H](O)Cn1cc(Nc2ncc(Cl)c(N[C@H]3[C@@H](C(N)=O)[C@@H]4C=C[C@H]3C4)n2)cn1` [Example 105, (1S,2S,3R,4R)-3-{[5-chloro-2-({1-[(2R)-2-hydroxypropyl]-1H-pyrazol-4-yl}amino)pyrimidin-4-yl]amino}bicyclo[2.2.1]hept-5-ene-2-carboxamide], for which the pIC50 at KDR was over 7.00. Besides, on Aurora B, the pKi is over 7.00. In the test on NCI-H1299 cells, the EC15 was under 100 nM.
On to `COCCn1cc(Nc2ncc(Br)c(N[C@H]3[C@@H](C(N)=O)[C@@H]4C=C[C@H]3C4)n2)cn1` [Example 106, (1S,2S,3R,4R)-3-[(5-bromo-2-{[1-(2-methoxyethyl)-1H-pyrazol-4-yl]amino}pyrimidin-4-yl)amino]bicyclo[2.2.1]hept-5-ene-2-carboxamide], for which the pIC50 at KDR is over 7.00. The pKi at Aurora B is over 7.00. Besides, the EC15 in the test on NCI-H1299 cells was under 100 nM.
As for `NC(=O)[C@@H]1[C@H](Nc2nc(Nc3cnn([C@@H]4CCOC4)c3)ncc2Cl)[C@H]2C=C[C@@H]1C2` [Example 107, (1S,2S,3R,4R)-3-{[5-chloro-2-({1-[(3R)-tetrahydrofuran-3-yl]-1H-pyrazol-4-yl}amino)pyrimidin-4-yl]amino}bicyclo[2.2.1]hept-5-ene-2-carboxamide], the pIC50 at KDR is over 7.00. Besides, the pKi on Aurora B is over 7.00. Further, the EC15 in the test with NCI-H1299 cells was under 100 nM.
As for `NC(=O)[C@@H]1[C@H](Nc2nc(Nc3cnn([C@H]4CCOC4)c3)ncc2Cl)[C@H]2C=C[C@@H]1C2` [Example 108, (1S,2S,3R,4R)-3-{[5-chloro-2-({1-[(3S)-tetrahydrofuran-3-yl]-1H-pyrazol-4-yl}amino)pyrimidin-4-yl]amino}bicyclo[2.2.1]hept-5-ene-2-carboxamide], the pIC50 at KDR was over 7.00. At Aurora B, this molecule had a pKi of over 7.00. Moreover, the EC15 in the test on NCI-H1299 cells is under 100 nM.
`Cn1cc(Nc2ncc(C(F)(F)F)c(Nc3ccccc3C3(O)CNC3)n2)cn1` [Example 109, 3-[2-({2-[(1-methyl-1H-pyrazol-4-yl)amino]-5-(trifluoromethyl)pyrimidin-4-yl}amino)phenyl]azetidin-3-ol]: the pIC50 at KDR is 6.00 to 7.00. For the same molecule, at Aurora B, the pKi is over 7.00. Moreover, in the test on NCI-H1299 cells, the EC15 was under 100 nM.
The like results for `COCCOCCn1cc(Nc2ncc(Br)c(N[C@H]3[C@@H](C(N)=O)[C@@H]4C=C[C@H]3C4)n2)cn1` [Example 110, (1S,2S,3R,4R)-3-{[5-bromo-2-({1-[2-(2-methoxyethoxy)ethyl]-1H-pyrazol-4-yl}amino)pyrimidin-4-yl]amino}bicyclo[2.2.1]hept-5-ene-2-carboxamide] were, in that order, over 7.00, over 7.00 and under 100 nM.
The matching figures for `CC(C)CCn1cc(Nc2ncc(Br)c(N[C@H]3[C@@H](C(N)=O)[C@@H]4C=C[C@H]3C4)n2)cn1` [Example 111, (1S,2S,3R,4R)-3-[(5-bromo-2-{[1-(3-methylbutyl)-1H-pyrazol-4-yl]amino}pyrimidin-4-yl)amino]bicyclo[2.2.1]hept-5-ene-2-carboxamide]: over 7.00, over 7.00 and under 100 nM.
The like results for `CC(C)n1cc(Nc2ncc(Br)c(N[C@H]3[C@@H](C(N)=O)[C@@H]4C=C[C@H]3C4)n2)cn1` [Example 112, (1S,2S,3R,4R)-3-({5-bromo-2-[(1-isopropyl-1H-pyrazol-4-yl)amino]pyrimidin-4-yl}amino)bicyclo[2.2.1]hept-5-ene-2-carboxamide] were, in that order, over 7.00, over 7.00 and under 100 nM.
`Cn1cc(Nc2ncc(C(F)(F)F)c(Nc3ccccc3C3(O)CCC3)n2)cn1` [Example 115, 1-[2-({2-[(1-methyl-1H-pyrazol-4-yl)amino]-5-(trifluoromethyl)pyrimidin-4-yl}amino)phenyl]cyclobutanol]: the negative logarithm of the IC50 (pIC50) on KDR is 6.00 to 7.00. The same molecule showed a negative-log Ki (pKi) on Aurora B of over 7.00. In addition, the EC15 with NCI-H1299 cells was under 100 nM.
The matching figures for `NC(=O)[C@@H]1[C@H](Nc2nc(Nc3cnn([C@@H]4CCOC4)c3)ncc2Br)[C@H]2C=C[C@@H]1C2` [Example 116, (1S,2S,3R,4R)-3-{[5-bromo-2-({1-[(3R)-tetrahydrofuran-3-yl]-1H-pyrazol-4-yl}amino)pyrimidin-4-yl]amino}bicyclo[2.2.1]hept-5-ene-2-carboxamide]: over 7.00, over 7.00 and under 100 nM.
The like results for `NC(=O)[C@@H]1[C@H](Nc2nc(Nc3cnn([C@H]4CCOC4)c3)ncc2Br)[C@H]2C=C[C@@H]1C2` [Example 117, (1S,2S,3R,4R)-3-{[5-bromo-2-({1-[(3S)-tetrahydrofuran-3-yl]-1H-pyrazol-4-yl}amino)pyrimidin-4-yl]amino}bicyclo[2.2.1]hept-5-ene-2-carboxamide] were, in that order, over 7.00, over 7.00 and under 100 nM.
As for `NC(=O)[C@@H]1[C@H](Nc2nc(Nc3cnn(C4CCC4)c3)ncc2Cl)[C@H]2C=C[C@@H]1C2` [Example 118, (1S,2S,3R,4R)-3-({5-chloro-2-[(1-cyclobutyl-1H-pyrazol-4-yl)amino]pyrimidin-4-yl}amino)bicyclo[2.2.1]hept-5-ene-2-carboxamide], on KDR, the pIC50 is over 7.00. This molecule gave a pKi at Aurora B of over 7.00. Also, in the test with NCI-H1299 cells, the EC15 was under 100 nM.
For the molecule `CS(=O)(=O)CCn1cc(Nc2ncc(Cl)c(N[C@H]3[C@@H](C(N)=O)[C@@H]4C=C[C@H]3C4)n2)cn1` [Example 119, (1S,2S,3R,4R)-3-{[5-chloro-2-({1-[2-(methylsulfonyl)ethyl]-1H-pyrazol-4-yl}amino)pyrimidin-4-yl]amino}bicyclo[2.2.1]hept-5-ene-2-carboxamide], the pIC50 at KDR is 6.00 to 7.00. For the same molecule, on Aurora B, the pKi is over 7.00. For the same molecule, the EC15 with NCI-H1299 cells is under 100 nM.
`CS(=O)(=O)CCn1cc(Nc2ncc(Br)c(N[C@H]3[C@@H](C(N)=O)[C@@H]4C=C[C@H]3C4)n2)cn1` [Example 122, (1S,2S,3R,4R)-3-{[5-bromo-2-({1-[2-(methylsulfonyl)ethyl]-1H-pyrazol-4-yl}amino)pyrimidin-4-yl]amino}bicyclo[2.2.1]hept-5-ene-2-carboxamide]: on KDR, the pIC50 was over 7.00. Also, the pKi at Aurora B is over 7.00. Besides, the EC15 in the test on NCI-H1299 cells was under 100 nM.
For `NC(=O)[C@@H]1[C@H](Nc2nc(Nc3cnn(C4CCC4)c3)ncc2Br)[C@H]2C=C[C@@H]1C2` [Example 123, (1S,2S,3R,4R)-3-({5-bromo-2-[(1-cyclobutyl-1H-pyrazol-4-yl)amino]pyrimidin-4-yl}amino)bicyclo[2.2.1]hept-5-ene-2-carboxamide], the pIC50 on KDR was over 7.00. The same molecule had a negative-log Ki (pKi) on Aurora B of over 7.00. Besides, in the test with NCI-H1299 cells, the EC15 was under 100 nM.
